Measurements as given in patent publication US20240270809A1, “ORAL GLP RECEPTOR AGONISTS” (priority 2020, published 2024).
Positions of bridges follow the written chain, without caps; N, C: chain ends. Non-standard residues stand in square brackets, D forms with d. Residues, ends and D or L forms follow the SMILES beside them. *: point of attachment. Malonyl(2,2-Me2,histaminyl) = CC(C)(C(=O)NCCc1cnc[nH]1)C(=O)*; Ala(1H-tetrazol-5-yl) = N[C@@H](Cc1nnn[nH]1)C(=O)O; αMePhe(2-F) = C[C@](N)(Cc1ccccc1F)C(=O)O; αMeL = CC(C)C[C@](C)(N)C(=O)O; Nle = CCCC[C@H](N)C(=O)O; Aib = CC(C)(N)C(=O)O

Key:
mouse GLP2 receptor = molecular target: T1, mouse GLP2 receptor (Mus musculus, UniProt Q5IXF8); experiment: cAMP accumulation assay, functional agonism of mouse GLP2 receptor; type: cell-based; details: HEK cells transiently transfected with mouse GLP2 receptor, HTRF cAMP; for Emax: HEK293, read-out: Mouse GLP-2R agonist cAMP Emax; for EC50: read-out: Mouse GLP-2R agonist cAMP pEC50 (converted)
T1 construct: expressed in transfected cells; host or cells: HEK cells, transient transfection with GeneJuice
T1 sequence (Q5IXF8 1-512): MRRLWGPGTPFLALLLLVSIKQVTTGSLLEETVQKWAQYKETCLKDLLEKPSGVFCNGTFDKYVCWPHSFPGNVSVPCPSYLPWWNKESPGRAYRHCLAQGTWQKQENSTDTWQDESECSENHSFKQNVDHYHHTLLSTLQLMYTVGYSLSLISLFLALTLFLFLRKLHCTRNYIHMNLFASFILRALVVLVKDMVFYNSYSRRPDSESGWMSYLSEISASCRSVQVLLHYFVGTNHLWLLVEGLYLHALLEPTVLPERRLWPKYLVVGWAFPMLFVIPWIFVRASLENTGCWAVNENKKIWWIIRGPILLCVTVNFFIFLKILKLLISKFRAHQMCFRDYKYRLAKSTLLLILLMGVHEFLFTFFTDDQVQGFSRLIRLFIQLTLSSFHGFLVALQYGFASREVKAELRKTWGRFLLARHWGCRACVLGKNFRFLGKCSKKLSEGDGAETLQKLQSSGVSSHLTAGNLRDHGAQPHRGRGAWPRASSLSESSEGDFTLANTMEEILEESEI
In short: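 pEC50 values come from four-parameter fits of HTRF cAMP signal, read after lysis and 1 h RT incubation. Compounds were incubated 45 min at 37 °C with previously frozen, transiently transfected HEK cells (8000/well) in HBSS containing 0.5 mM IBMX.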

human GLP2 receptor = molecular target: T2, human GLP2 receptor (Homo sapiens, UniProt O95838); experiment: cAMP accumulation assay, functional agonism of human GLP2 receptor; type: cell-based; details: HEK cells infected with human GLP2 receptor BacMam virus, HTRF cAMP; for Emax: HEK293, read-out: Human GLP-2R agonist cAMP Emax; for EC50: read-out: Human GLP-2R agonist cAMP pEC50 (converted)
T2 construct: expressed in transfected cells; host or cells: HEK cells, BacMam virus transduction
T2 sequence (O95838 1-553): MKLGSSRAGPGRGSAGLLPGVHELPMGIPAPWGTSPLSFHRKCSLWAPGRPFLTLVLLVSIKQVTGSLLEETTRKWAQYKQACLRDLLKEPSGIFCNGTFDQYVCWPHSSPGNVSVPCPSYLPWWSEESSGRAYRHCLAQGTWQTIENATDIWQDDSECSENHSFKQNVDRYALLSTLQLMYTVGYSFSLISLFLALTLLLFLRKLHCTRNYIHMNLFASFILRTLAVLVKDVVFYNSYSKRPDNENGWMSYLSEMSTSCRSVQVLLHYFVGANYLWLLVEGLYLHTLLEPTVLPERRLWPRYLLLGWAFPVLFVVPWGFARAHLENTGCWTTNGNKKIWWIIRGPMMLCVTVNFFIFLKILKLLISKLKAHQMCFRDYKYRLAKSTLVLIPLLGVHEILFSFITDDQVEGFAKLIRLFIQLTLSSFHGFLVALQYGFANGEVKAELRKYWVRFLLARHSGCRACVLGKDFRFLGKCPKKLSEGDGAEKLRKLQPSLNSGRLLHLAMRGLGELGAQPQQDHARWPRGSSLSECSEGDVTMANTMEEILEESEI
In short: (§1)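 cAMP read by HTRF detection reagents in lysis buffer following 45 min agonist exposure at 37 °C. Cells: frozen HEK transduced for 24 h with GLP1 or GLP2 receptor BacMam, suspended in HBSS plus 0.5 mM IBMX.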

[1] = Stability of peptides in rat intestinal fluid (ratIF); details: Sprague Dawley, undiluted rat small intestinal fluid (ratIF)
Protocol: Peptides were tested for in vitro stability in native intestinal fluid obtained from the rat small intestine. Rat Sprague Dawley Small Intestinal Fluid (ratIF) (from Biotrend art. no. RSD-SIF-MI-30ML, undiluted) was preincubated for 15 min at 37° C. and spiked with test and reference item working solutions. Experiments were conducted in duplicate in a non-serial manner. The total incubation volume per replicate was 150 μl. […] All samples and calibration standards (prepared in ratIF) were precipitated by addition of 300 μl precipitant (ACN / 2% acetic acid / 0.2% HFBA, (precipitation regent, PR)) containing internal standards (ISTD) to 150 μl sample. After incubation for 1 h at room temperature all samples were centrifuged for 10 min at 2,200×g (room temperature).

[2] = Stability of peptides in Fasted-State Simulated Gastric Fluid (FaSSGF); type: in vitro ADME; details: FaSSGF with 0.1 mg/ml pepsin; t=30 mins, 37° C., pH 1.6, 0.1 mg/ml pepsin
Protocol: Stability of peptides was tested in Fasted-State Simulated gastric Fluid (FaSSGF) prepared according to manufacturer's protocol (Biorelevant, art. no. FFF01). […] FaSSGF was pre-incubated for 15 min at 37° C. and spiked with test and reference item working solutions. Experiments were conducted in duplicate in a non-serial manner. The total incubation volume per replicate was 150 μl. […] All samples and calibration standards (prepared in FaSSGF) were precipitated by addition of 300 μl precipitant (ACN / 2% acetic acid / 0.2% HFBA, (precipitation regent, PR)) containing internal standards (ISTD) to 150 μl sample. After incubation for 1 h at room temperature all samples were centrifuged for 10 min at 2,200×g (room temperature).

human GLP1 receptor = molecular target: T3, human GLP1 receptor (Homo sapiens, UniProt P43220); experiment: cAMP accumulation assay, functional agonism of human GLP1 receptor; type: cell-based; details: HEK cells infected with human GLP1 receptor BacMam virus, HTRF cAMP; for Emax: HEK293, read-out: Human GLP-1R agonist cAMP Emax; for EC50: read-out: Human GLP-1R agonist cAMP pEC50 (converted)
T3 construct: expressed in transfected cells; host or cells: HEK cells, BacMam virus transduction
In short: as §1

[3] = Stability of peptides in Fasted-State Simulated Intestinal Fluid (FaSSIF); type: in vitro ADME; details: FaSSIF with 10 mg/ml pancreatin, 37° C.; for remaining at 0.5 h: t=30 mins, pH 6.5, 10 mg/ml pancreatin

T3 sequence (P43220 24-463): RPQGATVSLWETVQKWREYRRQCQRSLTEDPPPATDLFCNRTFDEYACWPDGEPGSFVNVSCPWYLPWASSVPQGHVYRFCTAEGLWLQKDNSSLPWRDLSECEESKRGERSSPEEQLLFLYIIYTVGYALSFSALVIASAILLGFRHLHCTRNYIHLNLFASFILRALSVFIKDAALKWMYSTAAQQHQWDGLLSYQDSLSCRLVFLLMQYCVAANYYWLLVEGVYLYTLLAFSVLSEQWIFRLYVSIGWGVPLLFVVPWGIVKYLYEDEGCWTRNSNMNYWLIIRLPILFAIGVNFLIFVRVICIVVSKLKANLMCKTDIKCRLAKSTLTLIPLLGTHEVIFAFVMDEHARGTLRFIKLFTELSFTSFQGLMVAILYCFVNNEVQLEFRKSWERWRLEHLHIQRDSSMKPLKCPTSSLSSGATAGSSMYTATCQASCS

Compound | Emax (mouse GLP2 receptor) [%] | EC50 (mouse GLP2 receptor) [nM] | Emax (human GLP2 receptor) [%] | EC50 (human GLP2 receptor) [nM] | remaining at 0.5 h [1] [%] | remaining at 0.5 h [2] [%] | Emax (human GLP1 receptor) [%] | EC50 (human GLP1 receptor) [nM] | remaining at 0.5 h [3] [%] | remaining at 0.25 h [1] [%] | remaining at 0.25 h ([3]; FaSSIF pH 6.5 with 10 mg/ml pancreatin, t = 15 mins) [%]
CCCC[C@H](NC(=O)[C@H](CCC(=O)O)NC(=O)[C@H](CC(=O)O)NC(=O)[C@H](CO)NC(=O)[C@](C)(Cc1ccccc1F)NC(=O)[C@H](CO)NC(=O)CNC(=O)[C@H](CC(=O)O)NC(=O)C(C)(C)NC(=O)[C@@H](N)Cc1c[nH]cn1)C(=O)N[C@H](Cc1ccccc1)C(=O)N[C@H]1CCC(=O)NCCCC[C@@H](C(=O)N[C@H]2CCC(=O)NCCCC[C@@H](C(=O)N[C@@H](CC(=O)O)C(=O)N[C@@H](Cc3ccccc3)C(=O)N[C@H](C(=O)N[C@H]3CCC(=O)NCCCC[C@@H](C(=O)N[C@H]4CCCCNC(=O)CC[C@@H](C(N)=O)NC(=O)[C@H]([C@@H](C)O)NC(=O)[C@H]([C@@H](C)CC)NC(=O)[C@H](CCCCN)NC4=O)NC(=O)[C@H]([C@@H](C)CC)NC(=O)[C@H](CC(C)C)NC(=O)[C@H](Cc4c[nH]c5ccccc45)NC3=O)[C@@H](C)CC)NC(=O)[C@H](C)NC(=O)[C@H](C)NC2=O)NC(=O)[C@H](CC(=O)O)NC(=O)[C@H](CC(C)C)NC(=O)[C@H]([C@@H](C)CC)NC1=O [Example 48] | 103 | 0.0631 | 101 | 0.00794 | 100 | 100 | 98.7 | 0.0158 | 80.2 | – | –
CC[C@H](C)[C@H](NC(=O)[C@H](Cc1ccccc1)NC(=O)[C@H](CC(=O)O)NC(=O)[C@H](CCCNC(=N)N)NC(=O)[C@H](C)NC(=O)[C@H](C)NC(=O)[C@H](CC(C)C)NC(=O)[C@H](CC(N)=O)NC(=O)[C@H](CC(=O)O)NC(=O)[C@H](CC(C)C)NC(=O)[C@@H](NC(=O)[C@@H](NC(=O)[C@H](CC(N)=O)NC(=O)[C@H](CCSC)NC(=O)[C@H](CCC(=O)O)NC(=O)[C@H](CC(=O)O)NC(=O)[C@H](CO)NC(=O)[C@H](Cc1ccccc1)NC(=O)[C@H](CO)NC(=O)CNC(=O)[C@H](CC(=O)O)NC(=O)CNC(=O)[C@@H](N)Cc1c[nH]cn1)[C@@H](C)O)[C@@H](C)CC)C(=O)N[C@@H](CC(N)=O)C(=O)N[C@@H](Cc1c[nH]c2ccccc12)C(=O)N[C@@H](CC(C)C)C(=O)N[C@H](C(=O)N[C@@H](CCC(N)=O)C(=O)N[C@H](C(=O)N[C@@H](CCCCN)C(=O)N[C@H](C(=O)N[C@H](C(=O)N[C@@H](CC(=O)O)C(=O)O)[C@@H](C)O)[C@@H](C)CC)[C@@H](C)O)[C@@H](C)CC [Teduglutide, reference compound] | – | – | – | – | 1.3 | 9.2 | – | – | 1.7 | 5.7 | 1.2
CCCC[C@@H]1NC(=O)[C@H](CCC(=O)O)NC(=O)[C@@H](NC(=O)[C@H](CO)NC(=O)[C@](C)(Cc2ccccc2F)NC(=O)[C@H](CO)NC(=O)[C@@H](C)NC(=O)[C@H](CC(=O)O)NC(=O)C(C)(C)NC(=O)[C@@H](N)Cc2c[nH]cn2)CCCCNC(=O)C[C@@H](C(=O)N[C@@](C)(CC(C)C)C(=O)N[C@@H](CC(C)C)C(=O)N[C@@H](CC(=O)O)C(=O)N[C@H]2CCC(=O)NCCCC[C@@H](C(=O)N[C@@H](CC(=O)O)C(=O)N[C@@H](Cc3ccccc3)C(=O)N[C@H](C(=O)N[C@H]3CCCCNC(=O)C[C@@H](C(=O)N[C@H]4CCC(=O)NCCCC[C@@H](C(N)=O)NC(=O)[C@H]([C@@H](C)O)NC(=O)[C@H]([C@@H](C)CC)NC(=O)[C@H](CCCCN)NC4=O)NC(=O)[C@H]([C@@H](C)CC)NC(=O)[C@H](CC(C)C)NC(=O)[C@H](Cc4c[nH]c5ccccc45)NC3=O)[C@@H](C)CC)NC(=O)[C@H](C)NC(=O)[C@H](C)NC(=O)[C@H](CCCCN)NC2=O)NC(=O)[C@@H](Cc2ccccc2)NC1=O [Example 60] (H-H[Aib]D[dA]S[αMePhe(2-F)]SKE[Nle][dF]D[αMeL]LDEKAAKDFIKWLIDEKITK-NH2; lactam 8-12, 16-20, 24-28, 29-33 (inferred); C-terminus assumed) | 102 | 0.794 | 102 | 0.0158 | 89.6 | 100 | 96.5 | 0.158 | 62.5 | – | –
CCCC[C@@H]1NC(=O)[C@H](CCC(=O)O)NC(=O)[C@@H](NC(=O)[C@H](CO)NC(=O)[C@H](Cc2ccccc2)NC(=O)[C@H](CO)NC(=O)[C@@H](C)NC(=O)[C@H](Cc2nn[nH]n2)NC(=O)C(C)(C)C(=O)NCCc2c[nH]cn2)CCCCNC(=O)C[C@@H](C(=O)N[C@H](C(=O)N[C@@H](CC(C)C)C(=O)N[C@@H](CC(=O)O)C(=O)N[C@H]2CCC(=O)NCCCC[C@@H](C(=O)N[C@@H](CC(=O)O)C(=O)N[C@@H](Cc3ccccc3)C(=O)N[C@H](C(=O)N[C@H]3CCCCNC(=O)C[C@@H](C(=O)N[C@H](C(=O)N[C@H]4CCC(=O)NCCCC[C@@H](C(N)=O)NC(=O)[C@H]([C@@H](C)O)NC(=O)[C@H]([C@@H](C)CC)NC4=O)[C@@H](C)O)NC(=O)[C@H]([C@@H](C)CC)NC(=O)[C@H](CC(C)C)NC(=O)[C@H](Cc4c[nH]c5ccccc45)NC3=O)[C@@H](C)CC)NC(=O)[C@H](C)NC(=O)[C@H](C)NC(=O)[C@H](CCCCN)NC2=O)[C@@H](C)CC)NC(=O)[C@@H](Cc2ccccc2)NC1=O [Example 38] ({Malonyl(2,2-Me2,histaminyl)}-[Ala(1H-tetrazol-5-yl)][dA]SFSKE[Nle][dF]DILDEKAAKDFIKWLIDTEITK-NH2; lactam 6-10, 14-18, 22-26, 28-31 (inferred); C-terminus assumed) | 99 | 3.16 | 105 | 0.0126 | 33.4 | 100 | 88.8 | 0.501 | 61.3 | – | –
CCCC[C@H](NC(=O)[C@H](CCC(=O)O)NC(=O)[C@@H]1CC(=O)NCCCC[C@H](NC(=O)[C@H](Cc2nn[nH]n2)NC(=O)C(C)(C)C(=O)NCCc2c[nH]cn2)C(=O)N[C@@H](CO)C(=O)N[C@@H](Cc2ccccc2)C(=O)N[C@@H](CO)C(=O)N1)C(=O)N[C@H](Cc1ccccc1)C(=O)N[C@H](C(=O)N[C@@](C)(CC(C)C)C(=O)N[C@@H](CC(C)C)C(=O)N[C@@H](CC(=O)O)C(=O)N[C@H]1CCC(=O)NCCCC[C@@H](C(=O)N[C@@H](CC(=O)O)C(=O)N[C@@H](Cc2ccccc2)C(=O)N[C@H](C(=O)N[C@H]2CCC(=O)NCCCC[C@@H](C(=O)N[C@H]3CCC(=O)NCCCC[C@@H](C(N)=O)NC(=O)[C@H]([C@@H](C)O)NC(=O)[C@H]([C@@H](C)CC)NC(=O)[C@H](CCCCN)NC3=O)NC(=O)[C@H]([C@@H](C)CC)NC(=O)[C@H](CC(C)C)NC(=O)[C@H](Cc3c[nH]c4ccccc34)NC2=O)[C@@H](C)CC)NC(=O)[C@H](C)NC(=O)[C@H](C)NC(=O)[C@H](CCCCN)NC1=O)[C@@H](C)O [Example 45] ({Malonyl(2,2-Me2,histaminyl)}-[Ala(1H-tetrazol-5-yl)]KSFSDE[Nle][dF]T[αMeL]LDEKAAKDFIEWLIKEKITK-NH2; lactam 2-6, 14-18, 22-26, 27-31 (inferred); C-terminus assumed) | – | – | 104 | 0.0501 | 62.4 | 100 | 96.5 | 0.2 | 95.3 | – | –
